Our source for the IC50 and Remaining activity values is ChEMBL document CHEMBL1138015, “A 13C NMR approach to categorizing potential limitations of alpha,beta-unsaturated carbonyl systems in drug-like molecules” (Bioorg Med Chem Lett, 2004).

Data set [1] addresses T1, Vascular endothelial growth factor receptor 2 (Homo sapiens, UniProt P35968). The experiment in a line: Inhibition of Vascular endothelial growth factor receptor 2(KDR) without DTT (dithiothreitol).
In data set [2] the target is T1, Vascular endothelial growth factor receptor 2. The data set is described as follows: Inhibition of Vascular endothelial growth factor receptor 2(KDR) with DTT (dithiothreitol).
The nature of data set [3]: Percent remaining after incubation with NADPH in S9 cell was determined. Format: ADME, cell-based.

T1 sequence (P35968 whole entry): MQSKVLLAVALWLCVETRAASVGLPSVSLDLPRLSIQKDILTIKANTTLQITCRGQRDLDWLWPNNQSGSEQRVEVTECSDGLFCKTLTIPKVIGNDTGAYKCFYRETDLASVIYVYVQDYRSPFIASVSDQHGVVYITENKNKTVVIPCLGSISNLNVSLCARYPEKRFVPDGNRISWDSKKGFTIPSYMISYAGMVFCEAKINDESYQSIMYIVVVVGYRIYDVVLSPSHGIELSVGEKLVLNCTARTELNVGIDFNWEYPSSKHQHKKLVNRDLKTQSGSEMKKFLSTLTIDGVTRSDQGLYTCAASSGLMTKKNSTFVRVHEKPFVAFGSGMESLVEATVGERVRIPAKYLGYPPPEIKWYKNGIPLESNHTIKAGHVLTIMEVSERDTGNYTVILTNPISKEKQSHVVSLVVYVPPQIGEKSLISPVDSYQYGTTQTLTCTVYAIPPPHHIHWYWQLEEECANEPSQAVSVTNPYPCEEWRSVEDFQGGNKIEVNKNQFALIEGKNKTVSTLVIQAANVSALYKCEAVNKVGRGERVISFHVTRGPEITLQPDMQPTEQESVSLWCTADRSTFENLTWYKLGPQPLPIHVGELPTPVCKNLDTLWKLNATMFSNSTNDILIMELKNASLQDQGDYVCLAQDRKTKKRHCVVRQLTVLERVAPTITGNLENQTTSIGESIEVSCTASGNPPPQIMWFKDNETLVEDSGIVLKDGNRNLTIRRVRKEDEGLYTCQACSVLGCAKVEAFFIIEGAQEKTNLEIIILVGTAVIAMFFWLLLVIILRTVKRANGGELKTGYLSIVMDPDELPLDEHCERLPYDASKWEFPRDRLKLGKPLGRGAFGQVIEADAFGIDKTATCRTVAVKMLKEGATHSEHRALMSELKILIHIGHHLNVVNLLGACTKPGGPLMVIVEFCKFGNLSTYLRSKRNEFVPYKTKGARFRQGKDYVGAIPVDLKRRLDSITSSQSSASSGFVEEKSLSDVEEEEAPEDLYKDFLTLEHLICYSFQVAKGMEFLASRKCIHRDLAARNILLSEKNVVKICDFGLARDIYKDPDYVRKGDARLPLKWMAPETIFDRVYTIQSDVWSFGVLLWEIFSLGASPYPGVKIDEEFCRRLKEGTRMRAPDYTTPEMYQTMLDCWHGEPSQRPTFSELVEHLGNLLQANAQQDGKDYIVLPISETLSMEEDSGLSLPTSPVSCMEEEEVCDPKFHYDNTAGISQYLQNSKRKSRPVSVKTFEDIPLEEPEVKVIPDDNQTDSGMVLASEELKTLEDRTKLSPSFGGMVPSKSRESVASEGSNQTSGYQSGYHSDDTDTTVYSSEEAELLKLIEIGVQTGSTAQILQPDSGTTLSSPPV

The term IC50 denotes the concentration at which inhibition is half-maximal. A lower IC50 goes with inhibition by little substance. As for `O=C1Nc2ccccc2S/C1=C\c1c[nH]c2c(C(=O)N3CCC(N4CCCCC4)CC3)cccc12`, the IC50 in data set [1] turned out to be 720 nM; in data set [2], 170 nM.
`O=C1Nc2ccccc2S/C1=C\c1c[nH]c2cc(OCCN3CCOCC3)ccc12`: the IC50 in data set [1] was determined as 290 nM; in data set [2], 160 nM.
Regarding `CCN(CC)CCc1c(C)[nH]c(/C=C2\C(=O)NN=C2C2CC2)c1C`, the IC50 in data set [1] came to 2500 nM; in data set [2] it was 840 nM. In data set [3], this molecule came in with a Remaining activity of 80%.
`O=C1NN=C(c2cnccn2)/C1=C/c1cc2ccccc2[nH]1`: the values for the IC50 in data set [1] and in data set [2] were 410 nM and 40000 nM, respectively.
`Cc1[nH]c(/C=C2\C(=O)NN=C2c2cnccn2)c(C)c1CN(C)C` registered a Remaining activity in data set [3] of 18%.
As to `O=C1NN=C(c2cnccn2)/C1=C/c1[nH]c2ccccc2c1-c1ccccc1`, the IC50 stood at 20 nM in data set [1] and 470 nM in data set [2].
`Cc1c(/C=C2\C(=O)NN=C2c2cnccn2)[nH]c2ccccc12`: the half-maximal inhibitory concentration (IC50) in data set [1] was 60 nM; in data set [2] it was 140 nM.
With `CCN(CC)CCc1c(C)[nH]c(/C=C2\C(=O)NN=C2c2cnccn2)c1C`, the values for the half-maximal inhibitory concentration (IC50) in data set [1] and in data set [2] were 210 nM and 80 nM, respectively. The molecule further gave a Remaining activity in data set [3] of 72%.
